Values quoted from earlier work as cited in patent US12138351B2, “Pharmaceutical composition for oral administration comprising aminopyrimidine derivative or pharmaceutically acceptable salt, hydrate, or solvate thereof” (Janssen Biotech, Inc., priority 2020, dated 2024).
Read-outs that look alike come from different tables or passages of the source.

Experiments:
[1] = target: wild-type EGFR (Homo sapiens, UniProt P00533); settings: known irreversible EGFR TKI
[2] = system: T790M single active mutation (EGFRm) and double mutation; settings: known irreversible EGFR TKI
[3] = compared to the compound in the form of free-base

Sequence of wild-type EGFR (P00533 25-1210): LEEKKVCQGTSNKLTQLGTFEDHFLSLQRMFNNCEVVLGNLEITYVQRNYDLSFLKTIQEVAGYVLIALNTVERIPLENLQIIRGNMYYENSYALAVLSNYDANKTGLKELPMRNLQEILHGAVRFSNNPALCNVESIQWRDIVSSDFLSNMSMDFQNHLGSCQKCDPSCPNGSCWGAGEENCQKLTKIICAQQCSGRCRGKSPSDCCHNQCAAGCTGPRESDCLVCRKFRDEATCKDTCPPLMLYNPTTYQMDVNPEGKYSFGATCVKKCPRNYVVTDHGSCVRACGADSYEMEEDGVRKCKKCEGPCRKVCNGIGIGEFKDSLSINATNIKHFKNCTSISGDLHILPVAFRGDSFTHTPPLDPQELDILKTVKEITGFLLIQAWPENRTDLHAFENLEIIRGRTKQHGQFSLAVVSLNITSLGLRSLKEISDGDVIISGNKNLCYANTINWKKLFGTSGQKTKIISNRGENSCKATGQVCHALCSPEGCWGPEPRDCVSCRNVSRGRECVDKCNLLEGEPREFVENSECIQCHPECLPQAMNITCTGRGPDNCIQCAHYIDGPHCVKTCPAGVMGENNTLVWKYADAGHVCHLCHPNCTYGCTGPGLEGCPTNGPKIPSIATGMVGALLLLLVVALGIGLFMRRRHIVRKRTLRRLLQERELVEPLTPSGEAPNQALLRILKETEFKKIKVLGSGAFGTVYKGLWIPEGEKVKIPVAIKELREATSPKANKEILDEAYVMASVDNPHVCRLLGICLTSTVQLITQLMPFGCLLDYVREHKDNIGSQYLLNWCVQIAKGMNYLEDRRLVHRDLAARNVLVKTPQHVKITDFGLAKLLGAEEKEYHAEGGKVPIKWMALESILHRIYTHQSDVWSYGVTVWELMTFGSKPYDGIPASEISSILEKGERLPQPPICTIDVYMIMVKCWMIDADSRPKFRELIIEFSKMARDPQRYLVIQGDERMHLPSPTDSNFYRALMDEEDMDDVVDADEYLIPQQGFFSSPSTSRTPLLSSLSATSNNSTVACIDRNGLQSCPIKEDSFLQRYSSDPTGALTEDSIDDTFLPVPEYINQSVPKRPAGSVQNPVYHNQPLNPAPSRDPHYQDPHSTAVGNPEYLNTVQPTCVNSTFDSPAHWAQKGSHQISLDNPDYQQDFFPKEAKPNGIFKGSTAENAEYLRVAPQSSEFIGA

Compound	effect on wild-type EGFR [1]	inhibitory activity on T790M single active mutation (EGFRm) and double mutation [2]	stability [3]	bioavailability (co-administration with, e.g., an antacid, as well as administration alone)	bioavailability (compared to the compound in the form of free-base)
C=CC(=O)Nc1cc(Nc2nccc(-n3cc(CN(C)C)c(-c4ccccc4)n3)n2)c(OC)cc1N1CCOCC1 [Lazertinib, N-(5-(4-(4-((dimethylamino)methyl)-3-phenyl-1H-pyrazol-1-yl)pirimidine-2-ylamino)-4-methoxy-2-morpholinophenyl)acrylamide]	less effect	strong inhibitory activity			
N-(5-(4-(4-((dimethylamino)methyl)-3-phenyl-1H-pyrazol-1-yl)pirimidine-2-ylamino)-4-methoxy-2-morpholinophenyl)acrylamide mesylate [Lazertinib mesylate]			excellent	excellent bioavailability	excellent
